Assay results: PubChem BioAssay AID256 (DTP/NCI, 2004)
Where “and” joins values, the source holds several entries; their conditions need not be identical. Equal entries are not always repeated. Toxic doses and inconclusive results are not listed. Rule for the calls: active = survival T/C of 150% or more; inactive = T/C below 125% in these data.

Test system: CD2F1 mice, L1210 leukemia ip, survival T/C
Experiment: NCI In Vivo Anticancer Drug Screen. Data for tumor model L1210 Leukemia (intraperitoneal) in CD2F1 (CDF1) mice
Details: higher = longer survival
Outline: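 Each value reflects a quotient of treated over vehicle control outcomes in mice with a transplanted tumor.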

[1] = endpoint: mean survival time, dose: 100.0 mg/kg/injection, schedule: Q04DX003 (ip), vehicle: saline
[2] = endpoint: mean survival time, dose: 100.0 mg/kg/injection, schedule: Q04DX003 (ip), vehicle: saline with Tween-80
[3] = endpoint: mean survival time, dose: 200.0 mg/kg/injection, schedule: Q04DX003 (ip), vehicle: saline with Tween-80
[4] = endpoint: mean survival time, dose: 400.0 mg/kg/injection, schedule: Q04DX003 (ip), vehicle: saline with Tween-80
[5] = endpoint: mean survival time, dose: 100.0 mg/kg/injection, schedule: Q01DX009 (ip), vehicle: saline with Tween-80
[6] = endpoint: mean survival time, dose: 200.0 mg/kg/injection, schedule: Q01DX009 (ip), vehicle: saline with Tween-80
[7] = endpoint: mean survival time, dose: 400.0 mg/kg/injection, schedule: Q01DX009 (ip), vehicle: saline with Tween-80
[8] = endpoint: mean survival time, dose: 75.0 mg/kg/injection, schedule: Q01DX001 (ip), vehicle: saline
[9] = endpoint: mean survival time, dose: 150.0 mg/kg/injection, schedule: Q01DX001 (ip), vehicle: saline
[10] = endpoint: mean survival time, dose: 300.0 mg/kg/injection, schedule: Q01DX001 (ip), vehicle: saline
[11] = endpoint: mean survival time, dose: 50.0 mg/kg/injection, schedule: Q01DX009 (ip), vehicle: saline with Tween-80

Measured: T/C

CN(C)C1CC[N-]CC1.CN(C)C1CC[N-]CC1.[Cl][Pt+2][Cl]
inactive: endpoint: mean survival time, dose: 25.0 mg/kg/injection, schedule: Q04DX003 (ip), vehicle: saline 103 % of control | endpoint: mean survival time, dose: 50.0 mg/kg/injection, schedule: Q04DX003 (ip), vehicle: saline 109 % of control | [1] 114 % of control

CC(C)(O)CCC(C)(C)O
inactive: [2] 106 % of control | [3] 101 % of control | [4] 103 % of control

[Cl][Pt+2][Cl].[NH-]C1CCCC1.[NH-]C1CCCC1
inactive: endpoint: mean survival time, dose: 5.0 mg/kg/injection, schedule: Q01DX009 (ip), vehicle: Klucel (hydroxypropylcellulose) (HPC) 103 % of control | endpoint: mean survival time, dose: 10.0 mg/kg/injection, schedule: Q01DX009 (ip), vehicle: Klucel (hydroxypropylcellulose) (HPC) 104 % of control | endpoint: mean survival time, dose: 20.0 mg/kg/injection, schedule: Q01DX009 (ip), vehicle: Klucel (hydroxypropylcellulose) (HPC) 116 % of control and 104 % of control and 108 % of control | endpoint: mean survival time, dose: 20.0 mg/kg/injection, schedule: Q04DX003 (ip), vehicle: Klucel (hydroxypropylcellulose) (HPC) 103 % of control | endpoint: mean survival time, dose: 40.0 mg/kg/injection, schedule: Q01DX001 (ip), vehicle: Klucel (hydroxypropylcellulose) (HPC) 96 % of control | endpoint: mean survival time, dose: 40.0 mg/kg/injection, schedule: Q01DX009 (ip), vehicle: Klucel (hydroxypropylcellulose) (HPC) 115 % of control and 104 % of control | endpoint: mean survival time, dose: 40.0 mg/kg/injection, schedule: Q04DX003 (ip), vehicle: Klucel (hydroxypropylcellulose) (HPC) 103 % of control | endpoint: mean survival time, dose: 80.0 mg/kg/injection, schedule: Q01DX001 (ip), vehicle: Klucel (hydroxypropylcellulose) (HPC) 105 % of control | endpoint: mean survival time, dose: 80.0 mg/kg/injection, schedule: Q01DX009 (ip), vehicle: Klucel (hydroxypropylcellulose) (HPC) 121 % of control and 124 % of control | endpoint: mean survival time, dose: 80.0 mg/kg/injection, schedule: Q04DX003 (ip), vehicle: Klucel (hydroxypropylcellulose) (HPC) 111 % of control | endpoint: mean survival time, dose: 160.0 mg/kg/injection, schedule: Q01DX001 (ip), vehicle: Klucel (hydroxypropylcellulose) (HPC) 102 % of control | endpoint: mean survival time, dose: 160.0 mg/kg/injection, schedule: Q01DX009 (ip), vehicle: Klucel (hydroxypropylcellulose) (HPC) 115 % of control | endpoint: mean survival time, dose: 160.0 mg/kg/injection, schedule: Q04DX003 (ip), vehicle: Klucel (hydroxypropylcellulose) (HPC) 111 % of control | endpoint: mean survival time, dose: 320.0 mg/kg/injection, schedule: Q01DX001 (ip), vehicle: Klucel (hydroxypropylcellulose) (HPC) 106 % of control | endpoint: mean survival time, dose: 320.0 mg/kg/injection, schedule: Q01DX009 (ip), vehicle: Klucel (hydroxypropylcellulose) (HPC) 115 % of control and 103 % of control | endpoint: mean survival time, dose: 320.0 mg/kg/injection, schedule: Q04DX003 (ip), vehicle: Klucel (hydroxypropylcellulose) (HPC) 108 % of control | endpoint: mean survival time, dose: 640.0 mg/kg/injection, schedule: Q01DX001 (ip), vehicle: Klucel (hydroxypropylcellulose) (HPC) 114 % of control

COc1ccccc1NC(=O)NCCN(C)c1ccccc1
inactive: endpoint: mean survival time, dose: 100.0 mg/kg/injection, schedule: Q04DX002 (ip), vehicle: saline with Tween-80 88 % of control | endpoint: mean survival time, dose: 200.0 mg/kg/injection, schedule: Q04DX002 (ip), vehicle: saline with Tween-80 88 % of control

O=P(Oc1ccccc1)(Oc1ccccc1)C(Nc1ccccc1)c1ccncc1 (centres undefined)
inactive: [2] 93 % of control | [3] 100 % of control | [4] 102 % of control

CN(C)CCOc1ccccn1
inactive: [5] 93 % of control | [2] 92 % of control | [6] 95 % of control | [3] 87 % of control | [7] 87 % of control | [4] 87 % of control

COc1cc2c(cc1OC)C[N+]1(C)CCc3cc(OC)c(OC)cc3C1C2 (centres undefined)
inactive: endpoint: mean survival time, dose: 5.0 mg/kg/injection, schedule: Q01DX001 (ip), vehicle: saline 97 % of control | endpoint: mean survival time, dose: 10.0 mg/kg/injection, schedule: Q01DX001 (ip), vehicle: saline 93 % of control | endpoint: mean survival time, dose: 20.0 mg/kg/injection, schedule: Q01DX001 (ip), vehicle: saline 103 % of control | endpoint: mean survival time, dose: 40.0 mg/kg/injection, schedule: Q01DX001 (ip), vehicle: saline 97 % of control

CN1CCN(Cc2cn(C3CC(O)C(CO)O3)c(=O)[nH]c2=O)c2ccccc21 (centres undefined)
inactive: endpoint: mean survival time, dose: 12.5 mg/kg/injection, schedule: Q01DX005 (ip), vehicle: distilled water + Tween-80 93 % of control | endpoint: mean survival time, dose: 25.0 mg/kg/injection, schedule: Q01DX005 (ip), vehicle: distilled water + Tween-80 93 % of control | endpoint: mean survival time, dose: 50.0 mg/kg/injection, schedule: Q01DX005 (ip), vehicle: distilled water + Tween-80 93 % of control | endpoint: mean survival time, dose: 100.0 mg/kg/injection, schedule: Q01DX005 (ip), vehicle: distilled water + Tween-80 103 % of control | endpoint: mean survival time, dose: 200.0 mg/kg/injection, schedule: Q01DX005 (ip), vehicle: distilled water + Tween-80 93 % of control

CC(=O)CC(=O)Nc1cccc(Br)c1
inactive: [5] 98 % of control | [6] 101 % of control | [7] 101 % of control

CC(=O)OCCC(C)Nc1ccnc2cc(Cl)ccc12 (centres undefined)
inactive: endpoint: mean survival time, dose: 10.0 mg/kg/injection, schedule: Q01DX009 (ip), vehicle: saline with Tween-80 100 % of control | endpoint: mean survival time, dose: 20.0 mg/kg/injection, schedule: Q01DX009 (ip), vehicle: saline with Tween-80 102 % of control | endpoint: mean survival time, dose: 40.0 mg/kg/injection, schedule: Q01DX009 (ip), vehicle: saline with Tween-80 96 % of control | [2] 100 % of control

O=C1CC2OCC=C3CN4CCC5(C(=O)O)C(N1)C2C3CC45 (centres undefined)
inactive: [8] 106 % of control | [9] 100 % of control | [10] 100 % of control

Cc1ccc(-c2cc(Cl)c3cc(S(=O)(=O)F)ccc3n2)cc1
inactive: [5] 102 % of control | [2] 104 % of control | [6] 98 % of control | [3] 102 % of control | [7] 90 % of control | [4] 107 % of control

CSCCC(NC(=O)CN)C(=O)O (centres undefined)
inactive: [11] 96 % of control | [5] 92 % of control | [6] 100 % of control

CCOC(=O)/C(C#N)=C1/C=CCCC1
inactive: [8] 97 % of control | [9] 104 % of control | [10] 97 % of control

Cc1nc2c(n1C)C(=O)c1ccccc1C2=O
inactive: [1] 101 % of control

OC1COC(C(/C=N/Nc2ccccc2)=N/Nc2ccccc2)C1O (centres undefined)
inactive: endpoint: median survival time, dose: 25.0 mg/kg/injection, schedule: Q01DX005 (ip), vehicle: distilled water + Tween-80 97 % of control | endpoint: median survival time, dose: 50.0 mg/kg/injection, schedule: Q01DX005 (ip), vehicle: distilled water + Tween-80 94 % of control | endpoint: median survival time, dose: 100.0 mg/kg/injection, schedule: Q01DX005 (ip), vehicle: distilled water + Tween-80 87 % of control | endpoint: median survival time, dose: 200.0 mg/kg/injection, schedule: Q01DX005 (ip), vehicle: distilled water + Tween-80 92 % of control | endpoint: median survival time, dose: 400.0 mg/kg/injection, schedule: Q01DX005 (ip), vehicle: distilled water + Tween-80 92 % of control

COc1cccc(CO)c1Oc1ccc(C)cc1
inactive: endpoint: mean survival time, dose: 100.0 mg/kg/injection, schedule: Q01DX001 (ip), vehicle: saline 102 % of control | [1] 89 % of control | endpoint: mean survival time, dose: 200.0 mg/kg/injection, schedule: Q01DX001 (ip), vehicle: saline 105 % of control | endpoint: mean survival time, dose: 200.0 mg/kg/injection, schedule: Q04DX003 (ip), vehicle: saline 89 % of control | endpoint: mean survival time, dose: 400.0 mg/kg/injection, schedule: Q01DX001 (ip), vehicle: saline 100 % of control | endpoint: mean survival time, dose: 400.0 mg/kg/injection, schedule: Q04DX003 (ip), vehicle: saline 89 % of control

N.N.O=C([O-])/C=C\C(=O)[O-].[Pt]
inactive: endpoint: mean survival time, dose: 2.5 mg/kg/injection, schedule: Q04DX003 (ip), vehicle: distilled water + Tween-80 112 % of control | endpoint: mean survival time, dose: 5.0 mg/kg/injection, schedule: Q04DX003 (ip), vehicle: distilled water + Tween-80 116 % of control | endpoint: mean survival time, dose: 10.0 mg/kg/injection, schedule: Q04DX003 (ip), vehicle: distilled water + Tween-80 113 % of control | endpoint: mean survival time, dose: 10.0 mg/kg/injection, schedule: Q04DX003 (ip), vehicle: water 105 % of control | endpoint: mean survival time, dose: 20.0 mg/kg/injection, schedule: Q04DX003 (ip), vehicle: distilled water + Tween-80 118 % of control | endpoint: mean survival time, dose: 20.0 mg/kg/injection, schedule: Q04DX003 (ip), vehicle: water 113 % of control | endpoint: mean survival time, dose: 40.0 mg/kg/injection, schedule: Q04DX003 (ip), vehicle: water 118 % of control

C=C1C(=O)OC2/C=C(\C)CC(O)/C=C(/CO)CC(OC(=O)/C(C)=C/C)C12 (centres undefined)
inactive: endpoint: median survival time, dose: 15.0 mg/kg/injection, schedule: Q01DX009 (ip), vehicle: saline 103 % of control | endpoint: median survival time, dose: 30.0 mg/kg/injection, schedule: Q01DX009 (ip), vehicle: saline 108 % of control | endpoint: median survival time, dose: 60.0 mg/kg/injection, schedule: Q01DX009 (ip), vehicle: saline 105 % of control | endpoint: median survival time, dose: 120.0 mg/kg/injection, schedule: Q01DX009 (ip), vehicle: saline 95 % of control

c1ccc2c(c1)CC1Sc3ccccc3N=C21 (centres undefined)
inactive: [11] 91 % of control | [5] 91 % of control | [6] 94 % of control

CCc1ccc(NN=Nc2ccccc2C#N)cc1
inactive: [2] 95 % of control | [3] 95 % of control | [4] 98 % of control
